Measured values as given in patent US11618746B2, “Inhibitors of APOL1 and methods of using same” (Vertex Pharmaceuticals Incorporated, priority 2018, dated 2023).

Biological target: T1, G1 APOL1 (Homo sapiens, UniProt O14791, I384M/S342G)
T1 construct: expressed in transfected cells
T1 sequence (O14791 28-398 S342G/I384M): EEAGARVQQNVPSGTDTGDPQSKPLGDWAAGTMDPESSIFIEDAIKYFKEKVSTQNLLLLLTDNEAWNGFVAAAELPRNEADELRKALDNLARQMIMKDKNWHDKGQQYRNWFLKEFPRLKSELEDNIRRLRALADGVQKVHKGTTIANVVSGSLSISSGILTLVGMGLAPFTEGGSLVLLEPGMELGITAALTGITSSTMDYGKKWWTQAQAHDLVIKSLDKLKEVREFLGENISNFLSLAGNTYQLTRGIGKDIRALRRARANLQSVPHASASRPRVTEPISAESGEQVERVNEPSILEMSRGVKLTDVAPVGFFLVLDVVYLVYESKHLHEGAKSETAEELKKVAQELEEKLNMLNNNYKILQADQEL
Test: Acute APOL1 Thallium Assay with inducible stable clones of HEK 293 cells
Assay type: cell-based
Details: HEK T-Rex tetracycline-inducible cells expressing G1 APOL1 (clone G1 DC3.25); inhibition of thallium flux rate
Text: Acute APOL1 Thallium Assay with Inducible Stable Clones of HEK 293 Cells
Apolipoprotein L1 (APOL1) proteins form potassium-permeable cation pores in the plasma membrane. APOL1 risk variants (G1 and G2) induce greater potassium flux than G0 in HEK293 cells. This assay exploits the permeability of thallium (T1+) through ligand-gated potassium channels. The dye produces a bright fluorescent signal upon binding to T1+ conducted through potassium channels. The intensity of the T1+ signal is proportional to the number of potassium channels in the open state. Therefore, it provides a functional indication of the potassium channel activities. During the initial dye-loading step, the T1+ indicator dye as an acetoxymethyl (AM) ester enters the cells through passive diffusion. Cytoplasm esterases cleave the AM ester and relieve its active thallium-sensitive form. The cells are then stimulated with T1+. The increase of fluorescence in the assay represents the influx of T1+ into the cell specifically through the potassium channel (i.e. through APOL1 pores), providing a functional measurement of potassium channel/pore activity. The Thallium assay is conducted with cells expressing G1 APOL1.
APOL1 Cell Line (HEK T-Rex Stable Inducible Cell Line) • HEK T-Rex System • Tetracycline (Tet) inducible mammalian expression system. • Stably express the Tet repressor to regulate transcription. • Expression under the full-length CMV promoter. • APOL1 stable inducible cell line Clone used: G1 DC3.25
Tissue Culture Media • Cell Culture Medium • DMEM +10% FBS +P/S +5 μg/mL blasticidin+1 μg/mL puromycin. • 500 mL DMEM +55 mL FBS +5 mL P/S +280 μL blasticidin S HCl (10 mg/mL)+56 μL puromycin (10 mg/mL). • Cell Assay Medium • DMEM with 2% FBS+pen strep.
Instruments and Equipment • Nuaire cell culture hood, Cat. No. 540-600 • 37° C./5% CO2 incubator link to robotic arm, Liconic: STX110 • Molecular Devices FLIPR^Tetra High throughput cellular screening system, Cat. No. FT0324, Molecular Devices • ThermoFisher MultiDrop 384, Cat. No. 5840300 • Biotek Microfill, Cat. No. ASF1000A-4145 • BioRad TC10 cell counter, Cat. No. 145-0010 Assay Procedures
Cells Scaled Up from Frozen Vials • APOL1 G1 3.25 (HEK293 T-Rex) frozen vials: 5 million cells per vial • Step 1, Day 1: Defrost frozen vial into T-225. • Step 2, Day 5: (when 85% confluent): Split one T-225 at 3×10^6 cells per flask. • Step 3, Day 8: Splits cells to set up for the assay plates as described below.
T-Rex APOL1 HEK cells are split twice per week to keep the confluence state below 85% of the culture flask surface area. Cells can be kept until passage 25. • Cell Culture Medium • DMEM high glucose +10% FBS, +P/S, +5 μg/mL blasticidin, +1 μg/mL puromycin. • 500 mL DMEM, +55 mL FBS, +5 mL P/S, +280 μL blasicidin 10 mg/mL, +56 μL Puromycin 10 mg/mL. • Assay Media • Opti-MEM reduced serum medium from Invitrogen.
Preparation of Cell Assay Plates • Culture medium is removed from the x cm^2 T-flask by aspiration. • The cell monolayer is rinsed with PBS 1× at room temperature. PBS is removed by aspiration. • Cells are trypsinized using Trypsin. • The flasks are incubated at room temperature for 2-3 minutes. • Complete DMEM medium is then added. Cell suspension is then transferred to a 50 mL Falcon polypropylene tube. • Cells are then counted using a Biorad TC10 cell counter and the required amount of cells are centrifuged at 1200 RPM for 5 minutes. Required amount is 1.3×10^6 cells/mL APOL1 T-Rex HEK cells. • The pellet is suspended in the assay medium. • Using the MultiDrop, add 20 μL to each well (corresponds to 26000 cells total per well) of a 384-well black, transparent, flat bottom Poly-D coated plate. • Tetracycline as prepared in the following section is added to the cells before plating to induce APOL1 expression. • Plates are left at room temperature for 20 to 30 minutes before incubation at 37° C. and 5% CO2. […]

First: O=C(CCc1c(-c2ccc(F)cc2)[nH]c2ccccc12)N[C@H]1C(=O)NC[C@H]1O [Compound 133, 3-[2-(4-fluorophenyl)-1H-indol-3-yl]-N-[(3R,4R)-4-hydroxy-2-oxo-pyrrolidin-3-yl]propanamide]
Second: O=C(CCc1c(-c2ccc(F)cc2)[nH]c2ccccc12)N[C@@H]1C(=O)NC[C@@H]1O [Compound 135, 3-[2-(4-fluorophenyl)-1H-indol-3-yl]-N-[(3S,4S)-4-hydroxy-2-oxo-pyrrolidin-3-yl]propanamide]
The IC50 of the first is lower: 250 to 1000 nM for the first, greater than 1000 nM for the second. The first is the more potent here.

Compared with O=C(CCc1c(-c2ccccc2)[nH]c2c(C3CC3)cccc12)N[C@@H]1C(=O)NC[C@H]1O [Compound 63], O=C(CCc1c(-c2ccccc2)[nH]c2c(C3CCOC3)cccc12)N[C@@H]1C(=O)NC[C@H]1O (some centres unmarked) [Compound 65] is higher in IC50: less than 250 nM for the first, 250 to 1000 nM for the second.

O=C(CCc1c(-c2ccccc2)[nH]c2c(F)cc(F)cc12)N[C@H]1CCNC1=O [Compound 25] and Cc1ccc(-c2[nH]c3c(F)cc(F)cc3c2CCC(=O)N[C@@H]2CCNC2=O)cc1 [Compound 24] cannot be ordered by IC50: less than 250 nM for the first, less than 250 nM for the second.

Compared with C=C(C)c1cccc2c(CCC(=O)N[C@@H]3C(=O)NC[C@H]3O)c(-c3ccccc3)[nH]c12 [Compound 67], Cc1cccc2c(CCC(=O)N[C@@H]3C(=O)NC[C@H]3O)c(-c3ccccc3)[nH]c12 [Compound 69] is lower in IC50: 250 to 1000 nM for the first, less than 250 nM for the second. The second is the more potent here.

Compared with O=C(CCc1c(-c2ccc(F)cc2)[nH]c2c(F)cc(Cl)cc12)N[C@H]1CCNC1=O [Compound 32], Cc1cc(F)c2[nH]c(-c3ccc(F)cc3)c(CCC(=O)N[C@H]3CCNC3=O)c2c1 [Compound 31] is higher in IC50: less than 250 nM for the first, 250 to 1000 nM for the second.

O=C1NC[C@@H](O)[C@@H]1NC(=O)[C@@H](O)Cc1c(-c2ccc(F)cc2)[nH]c2c(F)cc(F)cc12 [Compound 94, (2S)-3-[5,7-difluoro-2-(4-fluorophenyl)-1H-indol-3-yl]-2-hydroxy-N-[(3S,4R)-4-hydroxy-2-oxo-pyrrolidin-3-yl]propanamide] and O=C(N[C@@H]1C(=O)NC[C@H]1O)[C@H](O)Cc1c(-c2ccc(F)cc2)[nH]c2c(F)cc(F)cc12 [Compound 92, (2R)-3-[5,7-difluoro-2-(4-fluorophenyl)-1H-indol-3-yl]-2-hydroxy-N-[(3S,4R)-4-hydroxy-2-oxo-pyrrolidin-3-yl]propanamide] cannot be ordered by IC50: greater than 1000 nM for the first, greater than 1000 nM for the second.

O=C(CCc1c(-c2ccc(F)cc2)[nH]c2ccc(Cl)cc12)N[C@@H]1C(=O)NC[C@H]1O [Compound 45, 3-[5-chloro-2-(4-fluorophenyl)-1H-indol-3-yl]-N-[(3S,4R)-4-hydroxy-2-oxo-pyrrolidin-3-yl]propanamide] and O=C(CCc1c(-c2ccc(F)cc2)[nH]c2cc(F)c(F)cc12)N[C@@H]1C(=O)NC[C@H]1O [Compound 81] cannot be ordered by IC50: less than 250 nM for the first, less than 250 nM for the second.

Cc1cccc2c(CCC(=O)N[C@@H]3C(=O)NC[C@H]3O)c(-c3ccc(F)cc3)[nH]c12 [Compound 71] and Cc1c(F)ccc2c(CCC(=O)N[C@@H]3C(=O)NC[C@H]3O)c(-c3ccc(F)cc3)[nH]c12 [Compound 83] cannot be ordered by IC50: less than 250 nM for the first, less than 250 nM for the second.

First: O=C(CCc1c(-c2ccc(F)cc2)[nH]c2c(F)c(F)c(F)cc12)N[C@@H]1C(=O)NC[C@H]1O [Compound 79]
Second: O=C(CCc1c(-c2ccc(F)cc2)[nH]c2c(F)cc(F)cc12)N[C@H]1C(=O)NC[C@H]1O [Compound 15]
The IC50 of the first is lower: less than 250 nM for the first, 250 to 1000 nM for the second. The first is the more potent here.

N#Cc1cccc(-c2[nH]c3ccc(F)cc3c2CCC(=O)N[C@H]2CCNC2=O)c1 [Compound 53] and COc1ccc2[nH]c(-c3ccc(F)cc3)c(CCC(=O)N[C@H]3CCNC3=O)c2c1 [Compound 56, 3-[2-(4-fluorophenyl)-5-methoxy-1H-indol-3-yl]-N-[(3S)-2-oxopyrrolidin-3-yl]propanamide] cannot be ordered by IC50: greater than 1000 nM for the first, greater than 1000 nM for the second.

Compared with O=C(CCc1c(-c2ccc(F)cc2)[nH]c2c(F)cc(OC(F)F)cc12)N[C@@H]1C(=O)NC[C@H]1O [Compound 106], C[C@H]1CNC(=O)[C@H]1NC(=O)CCc1c(-c2ccc(F)cc2)[nH]c2c(F)cc(F)cc12 [Compound 11] is higher in IC50: less than 250 nM for the first, greater than 1000 nM for the second.

First: COc1cc(F)cc2c(CCC(=O)N[C@H]3CCNC3=O)c(-c3ccc(F)cc3)[nH]c12 [Compound 41]
Second: Cc1cc(F)cc2c(CCC(=O)N[C@H]3CCNC3=O)c(-c3ccc(F)cc3)[nH]c12 [Compound 38]
The IC50 of the first is higher: 250 to 1000 nM for the first, less than 250 nM for the second. The second is the more potent here.

O=C(CCc1c(-c2ccccc2)[nH]c2c(Cl)cccc12)N[C@@H]1C(=O)NC[C@H]1O [Compound 74] and C=Cc1cccc2c(CCC(=O)N[C@@H]3C(=O)NC[C@H]3O)c(-c3ccccc3)[nH]c12 [Compound 62, N-[(3S,4R)-4-hydroxy-2-oxo-pyrrolidin-3-yl]-3-(2-phenyl-7-vinyl-1H-indol-3-yl)propanamide] cannot be ordered by IC50: less than 250 nM for the first, less than 250 nM for the second.

First: O=C(CCc1c(-c2ccc(F)cc2)[nH]c2c(F)cc(F)cc12)NC1CC2(CC2)NC1=O (centres unmarked) [Compound 17]
Second: O=C(CCc1c(-c2ccc(F)cc2)[nH]c2c(F)c(F)ccc12)N[C@H]1CCNC1=O [Compound 57]
The IC50 of the first is higher: greater than 1000 nM for the first, 250 to 1000 nM for the second.

First: Cc1cc(F)ccc1-c1[nH]c2ccccc2c1CCC(=O)N[C@@H]1C(=O)NC[C@H]1O [Compound 119]
Second: O=C(CCc1c(-c2ccc(OC(F)F)cc2)[nH]c2ccccc12)N[C@@H]1C(=O)NC[C@H]1O [Compound 117]
The IC50 of the first is higher: 250 to 1000 nM for the first, less than 250 nM for the second. The second is the more potent here.

First: C[C@@H](Cc1c(-c2ccc(F)cc2)[nH]c2c(F)cc(F)cc12)C(=O)N[C@@H]1C(=O)NC[C@H]1O [Compound 91, (2S)-3-[5,7-difluoro-2-(4-fluorophenyl)-1H-indol-3-yl]-N-[(3S,4R)-4-hydroxy-2-oxo-pyrrolidin-3-yl]-2-methyl-propanamide]
Second: CC(CC(=O)N[C@@H]1C(=O)NC[C@H]1O)c1c(-c2ccc(F)cc2)[nH]c2c(F)cc(F)cc12 (mixture of isomers) [Compound 97, 3-[5,7-difluoro-2-(4-fluorophenyl)-1H-indol-3-yl]-N-[(3S,4R)-4-hydroxy-2-oxo-pyrrolidin-3-yl]butanamide]
The IC50 of the first is lower: 250 to 1000 nM for the first, greater than 1000 nM for the second.

O=C(CCc1c(-c2ccccc2)[nH]c2c(Cl)cc(F)cc12)N[C@@H]1C(=O)NC[C@H]1O [Compound 35] and O=C(CCc1c(-c2ccc(Cl)cc2)[nH]c2c(Cl)cccc12)N[C@@H]1C(=O)NC[C@H]1O [Compound 113, 3-[7-chloro-2-(4-chlorophenyl)-1H-indol-3-yl]-N-[(3S,4R)-4-hydroxy-2-oxo-pyrrolidin-3-yl]propanamide] cannot be ordered by IC50: less than 250 nM for the first, less than 250 nM for the second.

C[C@@H](Cc1c(-c2ccc(F)cc2)[nH]c2c(F)cc(F)cc12)C(=O)N[C@H]1CCNC1=O [Compound 90, (2S)-3-[5,7-difluoro-2-(4-fluorophenyl)-1H-indol-3-yl]-2-methyl-N-[(3S)-2-oxopyrrolidin-3-yl]propanamide] was tested, and the IC50 was greater than 1000 nM.
